Legend:
[1] = detection of SH045 metabolites in MLM, HLM and mouse urine by LC-MS/MS; format: in vitro ADME, mouse and human; conditions: metabolite of SH045 detected in MLM, HLM (NADPH, UDPGA) and/or mouse urine after 20 mg/kg BW i.v.
Experimental: To explore metabolites of SH045 formed by microsomes, DPBS, alamethicin (25 µg/mL) and MLM or HLM (1.0 mg/mL) were pre-incubated, further incubated with SH045 MgCl2, NADPH and UDPGA, terminated, and processed for LC-MS/MS analysis as described. Positive controls with testosterone and 4-nitrophenol and negative controls were analyzed too (Supplementary Materials SM7).
Larixyl-N-methylcarbamate ((1S,4S,4aR,8aS)-4-((S)-3-hydroxy-3-methylpent-4-en-1-yl)-4a,8,8-trimethyl-3-methylenedeca-hydro-naphthalen-1-yl methylcarbamate, SH045, TRPC6 inhibitor) was synthesized as described by Häfner et al. [1]. (+)-Larixol (internal standard, IS) was isolated from Larix decidua turpentine [2]. Kolliphor® EL was obtained from Caelo (Hilden, Germany). […]
SM2 Quantification of SH045 by HPLC and tandem mass spectrometric methods (LC-MS/MS) In brief, chromatographic separation was achieved using a Zorbax Eclipse XDB-C8 column (100 × 3.0 mm, 3.5 μm 80 Å, Agilent Technologies) with linear gradient elution using water and ACN, each with 0.1 % formic acid as additive, during a total run time of 20 min. For quantification (+)-larixol was used as IS. […] Freshly prepared calibration samples for SH045 in plasma and tissue comprised eight concentration levels analyzed in duplicates (2, 5, 10, 100, 200, 800, 1200 and 1600 ng/mL). […]

[2] = tested on: FSGS-related TRPC6 channel mutants, including M132T and R175Q; set-up: method as in PMID 28800680; conditions: including M132T and R175Q variants; cited from earlier work
TRPC6 = conditions: Ca^2+ influx assays; cited from earlier work

Q: Which Occurrence [1] does the source give for C=C[C@](C)(CC[C@H]1C(=C)C[C@H](OC(=O)NC)[C@H]2C(C)(C)CCC[C@]12C)O[C@@H]1O[C@H](C(=O)O)[C@@H](O)[C@H](O)[C@H]1O [M8a] here?
A: MLM, HLM

Q: Which “inhibition of FSGS-related TRPC6 channel mutants” value [2] does the source give for C=CC(C)(O)CCC1C(=C)CC(OC(N)=O)C2C(C)(C)CCCC12C (centres unmarked) [larixyl-6-carbamate] here?
A: strong inhibitor

Q: And the IC50 (TRPC6)?
A: ~500 nM

Q: Which Occurrence [1] does the source give for CC[C@@](C)(O)CC[C@H]1C(C)C[C@H](OC(=O)NC)[C@H]2C(C)(C)CCC[C@]12C (some centres unmarked) [M2a] here?
A: MLM, HLM

Q: Which IC50 (TRPC6) does the source give for C=CC(C)(O)CCC1C(=C)CC(OC(C)=O)C2C(C)(C)CCCC12C (centres unmarked) [larixyl monoacetate] here?
A: ~500 nM
